Results on two compounds are retold here after patent US20160235735A1 (Teva Pharmaceutical Industries, Ltd., priority 2012, published 2016).

For data set [1], the system named is MOG-induced EAE Mice. The data set is described as follows: MOG-induced EAE in mice: laquinimod alone or in combination with fampridine. Type of data set: in vivo, C57BL/6 mice. The following applies: for Incidence / Mortality: 30 days; for % inhibition 3: according to GMS; for % inhibition 2: according to MMS; for % inhibition 1: according to incidence; for GMS value: group mean score; for MMS value: mean maximal score.

The conditions of data set [2]: cited from earlier work.
The conditions of data set [3]: in vivo; cited from earlier work.
For data set [4] the following is noted: in vivo; cited from earlier work. The source holds these as a separate data set.
[5] abbreviates: 4AP 2.5 mg/kg oral QD, compared to vehicle.
Where [6] appears, read: 4AP 5 mg/kg oral QD, compared to vehicle.
The mark [7] stands for this setting: laquinimod 10 mg/kg oral QD, compared to vehicle.
Setting [8] is: laquinimod 25 mg/kg oral QD, compared to LAQ (10 mg/kg).
Where [9] appears, read: laquinimod 25 mg/kg oral QD, compared to vehicle.

Values joined by “and” are separate entries in the source; they are usually repeats but may differ in a detail not shown here. Identical values can stand only once.

Regarding `Nc1ccncc1` [4AP, pyridin-4-amine], in data set [1] (4AP 2.5 mg/kg oral QD), the Incidence is recorded as 15/15, the Mortality is 0/15, the GMS value is listed as 2.2 ± 0.5 and the MMS value was 3.5 ± 0.6. For the same compound, in data set [1] (setting [5]), the “% inhibition 3” value is listed as 24.1%, the “% inhibition 2” value came to 10.2% and the “% inhibition 1” value amounted to 0%. The “% inhibition 3” value in data set [1] (4AP 2.5 mg/kg oral QD, compared to vehicle, listed as fampridine) is recorded as 24.1%. In data set [1] (4AP 5 mg/kg oral QD), the Incidence is on record as 15/15, the Mortality is 0/15, the GMS value worked out at 1.9 ± 0.6 and the MMS value was found to be 3.4 ± 0.6. Further, in data set [1] (setting [6]), the “% inhibition 3” value is 34.5%, the “% inhibition 2” value is recorded as 12.8% and the “% inhibition 1” value was found to be 0%. In addition, in data set [1] (4AP 5 mg/kg oral QD, compared to vehicle, listed as fampridine), the “% inhibition 3” value stood at 34.5%. Moreover, the “solubility in aqueous solution” value in data set [2] (chloride salt) is on record as “readily soluble”. Also, the lipid solubility entry in data set [2] (unionized form) is given as “lipid-soluble”. Also, the safety issues entry in data set [3] is “safety issues related to seizure induction”.
`CCN(C(=O)c1c(O)c2c(Cl)cccc2n(C)c1=O)c1ccccc1` [LAQ, Laquinimod]: in data set [1] (laquinimod 10 mg/kg oral QD), the Incidence is 10/15 and 15/15; the Mortality was 0/15; the GMS value is reported as 1.2 ± 1.0; the MMS value turned out to be 2.4 ± 1.9. Also, in data set [1] (setting [7]), the “% inhibition 3” value came out at 58.6%, the “% inhibition 2” value was 38.5% and the “% inhibition 1” value came out at 33.3%. In addition, the “% inhibition 3” value in data set [1] (laquinimod 10 mg/kg oral QD, compared to vehicle, listed as laquinimod) is 58.6%. Also, in data set [1] (laquinimod 25 mg/kg oral QD), the Incidence is on record as 4/15, the Mortality is recorded as 0/15, the GMS value is recorded as 0.4 ± 0.7 and the MMS value is on record as 0.7 ± 1.3. For the same compound, in data set [1] (setting [8]), the “% inhibition 3” value is given as 66.7%, the “% inhibition 2” value turned out to be 70.8% and the “% inhibition 1” value is reported as 60.0%. In addition, in data set [1] (setting [9]), the “% inhibition 3” value came out at 86.2%, the “% inhibition 2” value was determined as 82.1% and the “% inhibition 1” value is given as 73.3%. For the same compound, in data set [1] (laquinimod 25 mg/kg oral QD, compared to vehicle, listed as laquinimod), the “% inhibition 3” value worked out at 86.2%. Besides, in data set [4], the oral bioavailability entry is on record as “high oral bioavailability”.
